Reference: patent US4859773A, “Preparation of 1,8-bridged 4-quinoline-3-carboxylic acids” (Bayer Aktiengesellschaft, priority 1985, dated 1989)
Values after ≈ are worked out from the molar mass of the structure shown.

Legend:
Experiment in all cases: MIC, agar dilution test (Isosensitest medium), Denley multipoint inoculator
Assay type in all cases: cell-based
E. coli T 7 = conditions: Escherichia coli, T7
Excerpt: (§1) Agar dilution test (Isosensitest medium)
(§2) Denley multipoint inoculator

E. coli A 261 = conditions: Escherichia coli, A261
Excerpt: as §1, §2

Klebsiella 8085 = test system: Klebsiella 8085
Excerpt: as §1, §2

E. coli Neumann = conditions: Escherichia coli
Excerpt: as §1, §2

Cc1c(F)cc2c(=O)c(C(=O)O)cn3c2c1OCC3 [Example 61] showed an MIC (E. coli T 7) of 0.5 µg/mL (≈ 1.9 µM), an MIC (E. coli A 261) of 0.5 µg/mL (≈ 1.9 µM) and an MIC (Klebsiella 8085) of 0.125 µg/mL (≈ 0.475 µM). The MIC (E. coli Neumann) was 0.125 µg/mL (≈ 0.475 µM).
